Reference: ChEMBL document CHEMBL3745676, “Alkylamino derivatives of N-benzylpyrazine-2-carboxamide: synthesis and antimycobacterial evaluation” (Medchemcomm, 2015)
Active and inactive are the calls of the source. The calls are words filed in the database; no cut-off is given here.

What was measured:
[1] = Lipophilicity, logK of the compound by RP-HPLC analysis; format: physicochemical
[2] = test system: Mycobacterium tuberculosis; experiment: Antimycobacterial activity against Mycobacterium tuberculosis H37Rv CNCTC My 331/88 incubated for 10 to 14 days by microplate alamar blue assay; format: functional
[3] = test system: Mycobacterium kansasii; experiment: Antimycobacterial activity against Mycobacterium kansasii CNCTC My 235/80 incubated for 5 to 7 days by microplate alamar blue assay; format: functional
[4] = Cytotoxicity against CRFK cells assessed as cell viability after 4 to 6 days by formazan-based MTS assay; design: species or system Felis catus; conditions: cat
[5] = Cytotoxicity against HEL cells assessed as cell viability after 4 to 6 days by microscopic analysis; format: cell-based; conditions: human
[6] = Cytotoxicity against human HeLa cells assessed as cell viability after 4 to 6 days by microscopic analysis; format: cell-based
[7] = Cytotoxicity against African green monkey Vero cells assessed as cell viability after 4 to 6 days by microscopic analysis; format: cell-based; conditions: chlorocebus sabaeus
[8] = Cytotoxicity against MDCK cells assessed as cell viability after 4 to 6 days by formazan-based MTS assay; design: species or system Canis lupus familiaris; conditions: dog
[9] = Cytotoxicity against MDCK cells assessed as cell viability after 4 to 6 days by microscopic analysis; format: cell-based, Canis lupus familiaris; conditions: dog
[10] = test system: Influenza A virus; experiment: Antiviral activity against Influenza A virus (A/Puerto Rico/8/(H1N1)) assessed as inhibition of virus-induced cytopathic effect after 3 to 6 days by formazan-based MTS assay; format: functional, organism-based
[11] = test system: Mycobacterium avium; experiment: Antimycobacterial activity against Mycobacterium avium CNCTC My 80/72 after 5 days by microplate alamar blue assay; format: functional; conditions: CNCTC My 80/72, 120 h
[12] = test system: Mycobacterium avium; experiment: Antimycobacterial activity against Mycobacterium avium CNCTC My 152/73 after 5 days by microplate alamar blue assay; format: functional; conditions: CNCTC My 152/73, 120 h
[13] = test system: Escherichia coli; experiment: Antibacterial activity against Escherichia coli CCM 4517 after 24 to 48 hrs by broth microdilution method; format: functional
[14] = test system: Pseudomonas aeruginosa; experiment: Antibacterial activity against Pseudomonas aeruginosa CCM 1961 after 24 to 48 hrs by broth microdilution method; format: functional
[15] = test system: Klebsiella pneumoniae; experiment: Antibacterial activity against Klebsiella pneumoniae D 11750/08 after 24 to 48 hrs by broth microdilution method; format: functional
[16] = test system: Klebsiella pneumoniae; experiment: Antibacterial activity against ESBL positive Klebsiella pneumoniae J 14368/08 after 24 to 48 hrs by broth microdilution method; format: functional
[17] = test system: Candida albicans; experiment: Antifungal activity against Candida albicans ATCC 44859 after 24 to 48 hrs by broth microdilution method; format: functional
[18] = test system: Candida tropicalis; experiment: Antifungal activity against Candida tropicalis 156 after 24 to 48 hrs by broth microdilution method; format: functional
[19] = test system: Pichia kudriavzevii; experiment: Antifungal activity against Candida krusei E28 after 24 to 48 hrs by broth microdilution method; format: functional
[20] = test system: Nakaseomyces glabratus; experiment: Antifungal activity against Candida glabrata 20/I after 24 to 48 hrs by broth microdilution method; format: functional
[21] = test system: Trichosporon asahii; experiment: Antifungal activity against Trichosporon asahii 1188 after 24 to 48 hrs by broth microdilution method; format: functional
[22] = test system: Aspergillus fumigatus; experiment: Antifungal activity against Aspergillus fumigatus 231 after 24 to 48 hrs by broth microdilution method; format: functional
[23] = test system: Lichtheimia corymbifera; experiment: Antifungal activity against Lichtheimia corymbifera 272 after 24 to 48 hrs by broth microdilution method; format: functional
[24] = test system: Trichophyton mentagrophytes; experiment: Antifungal activity against Trichophyton mentagrophytes 445 after 72 to 120 hrs by broth microdilution method; format: functional
[25] = test system: Influenza A virus; experiment: Antiviral activity against Influenza A virus (A/Puerto Rico/8/(H1N1)) assessed as inhibition of virus-induced cytopathic effect after 3 to 6 days by microscopic analysis; format: functional, organism-based
[26] = test system: Mycobacterium tuberculosis; experiment: Potency index, ratio of pyrazinamide MIC to compound MIC for Mycobacterium tuberculosis H37Rv CNCTC My 331/88; format: functional
[27] = test system: Staphylococcus aureus; experiment: Antibacterial activity against methicillin-resistant Staphylococcus aureus H 5996/08 after 24 to 48 hrs by broth microdilution method; format: functional, organism-based

Compound | log K [1] | MIC [2] | MIC [3] | CC50 [4] [µM] | MCC [5] [µM] | MCC [6] [µM] | MCC [7] [µM] | CC50 [8] [µM] | MCC [9] [µM] | EC50 [10] [µM] | MIC [11] [µg/mL] | MIC [12] [µg/mL] | MIC95 [13] [µM] | MIC95 [14] [µM] | MIC95 [15] [µM] | MIC95 [16] [µM] | MIC [17] [µM] | MIC [18] [µM] | MIC [19] [µM] | MIC [20] [µM] | further results
CCCCCNc1cnc(C(=O)NCc2ccccc2)cn1 | 0.638 | 21 µM | > 100 µg/mL | > 100 | > 100 | > 100 | > 100 | > 100 | > 100 | 3.3 | > 100 | > 100 | > 500 | > 500 | > 500 | > 500 | > 500 | > 500 | > 500 | > 500 | MIC [21]: > 500 µM; MIC [22]: > 500 µM; MIC [23]: > 500 µM; MIC [24]: > 500 µM; EC50 [25]: 37 µM
CCCCCCCNc1cnc(C(=O)NCc2ccccc2)cn1 | 1.089 | 10 µM | > 100 µg/mL | > 100 | > 100 | > 100 | ≥ 100 | > 100 | > 100 | 47 | > 100 | > 100 | > 500 | > 500 | > 500 | > 500 | > 500 | > 500 | > 500 | > 500 | MIC [21]: > 500 µM; MIC [22]: > 500 µM; MIC [23]: > 500 µM; MIC [24]: > 500 µM; EC50 [25]: 21 µM; Ratio [26]: <=20
CCCCCNc1cncc(C(=O)NCc2ccccc2)n1 | 0.768 | 42 µM | 84 µM | > 100 | > 100 | > 100 | > 100 | 33 | 20 | > 100 | > 100 | > 100 | > 500 | > 500 | > 500 | > 500 | > 500 | > 500 | > 500 | > 500 | Activity [27]: inactive; MIC [21]: > 500 µM; MIC [22]: > 500 µM; MIC [23]: > 500 µM; MIC [24]: > 500 µM; EC50 [25]: > 100 µM
CCCCCCNc1nccnc1C(=O)NCc1ccccc1 | 1.564 | > 100 µg/mL | > 100 µg/mL | > 100 | 100 | > 100 | > 100 | > 100 | 100 | > 100 | > 100 | > 100 | > 500 | > 500 | > 500 | > 500 | > 500 | > 500 | > 500 | > 500 | MIC [21]: > 500 µM; MIC [22]: > 500 µM; MIC [23]: > 500 µM; MIC [24]: > 500 µM; EC50 [25]: > 100 µM
CCCCCCNc1cncc(C(=O)NCc2ccccc2)n1 | 0.986 | 20 µM | 40 µM | > 100 | > 100 | > 100 | 100 | 9.5 | 20 | > 100 | > 100 | > 100 | > 500 | > 500 | > 500 | > 500 | > 500 | > 500 | > 500 | > 500 | Activity [27]: inactive; MIC [21]: > 500 µM; MIC [22]: > 500 µM; MIC [23]: > 500 µM; MIC [24]: > 500 µM; EC50 [25]: > 100 µM
CCCCCNc1nccnc1C(=O)NCc1ccccc1 | 1.321 | > 100 µg/mL | > 100 µg/mL | > 100 | ≥ 100 | > 100 | > 100 | > 100 | ≥ 20 | > 100 | > 100 | > 100 | > 500 | > 500 | > 500 | > 500 | > 500 | > 500 | > 500 | > 500 | MIC [21]: > 500 µM; MIC [22]: > 500 µM; MIC [23]: > 500 µM; MIC [24]: > 500 µM; EC50 [25]: > 100 µM
O=C(NCc1ccccc1)c1cncc(NCc2ccccc2)n1 | 0.483 | 157 µM | > 100 µg/mL | – | – | – | – | – | – | – | > 100 | > 100 | – | – | – | – | – | – | – | – | –
